pIC50: −log10 of the molar value.
How the values were obtained:
[1] = rat, in vivo, iv, 10 mg/kg
Procedure: In the first IV administration study of MP470 free base, six groups of 6 rats were to be exposed to either vehicle alone or MP470 at 10, 20, 40, 80, or 160 mg/kg. Dosing was administered via a tail vein over approximately 30 minutes. Animals were observed immediately and 10 minutes and one hour after dosing, and daily thereafter for 4 additional days. […] Red urine and lethargy were present at 1 hour post dosing, but animals recovered and appeared normal thereafter. […] All other animals were euthanized and necropsied at day 4 appeared normal.

[2] = system: SF-767 glioblastoma multiforme cells; test: MTS cell death assay with ionizing radiation; format: cell-based
Procedure: SF-767 glioblastoma multiforme cells were treated with MP470 at 1 μM, 800c Gy IR (ionizing radiation), or a combination of both.

[3] = system: Rad51 in A549 non-small cell lung cancer cells; test: Rad51 protein level by Western blot in cells; format: cell-based; conditions: MP470.HCl alone, 24 hrs
Procedure: Rad51 protein levels were also determined in A549 non-small cell lung cancer cells using combinations with DNA damaging agents. Cells were treated for 24 hrs with 6.1 μM (IC30 of carboplatin alone) carboplatin in combination with 0.71 μM or 3.82 μM MP470.HCl. Protein lysates were isolated from treated and non-treated cells, separated by SDS-PAGE, and transferred to nitrocellulose. […] The increase in Rad51 due to carboplatin treatment was reduced by 26% when treated in combination with 0.71 μM MP470.HCl and by 42% with 3.82 μM MP470.HCl

in vivo = conditions: rat; for severely toxic dose / severely toxic dose (STD): 28 days
Procedure: In a chronic tolerability study of MP470 hydrochloride salt in the rat, the animals were dosed 20, 60, 100 or 200 mg/kg/d (males) and 6, 20, 60 and 100 mg/kg/d (females) daily for 28 days. One female rat died after 5 doses at 100 mg/kg/d, however the it was not clear if this was related to the drug. Two additional female rats died on days 28 and 42 (control and 60 mg/kg/d) possibly due the trauma induced by repeated blood collection. There were no clinical signs of severe toxicity prior to deaths. The clinical abnormalities included hunched posture, soft feces and sporadic occurrence of hair loss. […] Although all animals gained weight during the study, the relative gain was lower in the males at 200 mg/kg/d (70% control) and females at 60 and 100 mg/kg/d (83 and 57% control). […] There were signs of recovery after cessation of dosing. There were no drug related adverse ophthalmologic effects or change hematology parameters. Significant clinical chemistry changes included decreases in glucose and triglyceride levels in males at 200 mg/kg/d, and alterations in cholesterol, troponin-1 and alkaline phosphatase in females (60 and 100 mg/kg/d). There was no correlative histopathology for these alterations. There were no drug related adverse changes in urinalysis or organ weight changes. There were sporadic alterations in organ weights but without corresponding microscopic pathology. […] There was adequate systemic exposure in both sexes; however the exposure was not dose-proportional (lower at higher doses). At all doses exposure to females was higher than that in males and exposure on day 27 was higher than that on day 1. There was substantial variability in the half-lives and ranged from 2 to 8 hours. The no observed effect level (NOEL) was 60 mg/kg/d (360 mg/m2/d) for males and 20 mg/kg/d (120 mg/m2/d) for females. In the absence of clear target organ toxicity or signs of severe toxicity a severely toxic dose (STD) could not be calculated. STD is likely to be higher than 100 mg/kg/d for females and 200 mg/kg/d for the males.

[4] = system: OVCAR-3 ovarian cancer cells; test: OVCAR-3 ovarian cancer tumor model in nude mice; format: in vivo
Procedure: MP470 and MP470 HCl were tested against different tumor types in athymic nude mice as summarized below (Table 8). Various formulations and routes were evaluated. HT-29 colorectal cancer cells and SB-CL2 melanoma cells were implanted subcutaneously, while A549 lung cancer cells, MiaPaCa-2 pancreatic cancer cells, TT medullary thyroid cancer cells, and OVCAR-3 ovarian cancer cells were implanted […] in the hind flank of mice. All animals were allowed to develop medium-sized (80-125 mg) tumors, before initiation of dosing. Tumor volume and mouse bodyweight were followed over the course of the study.
OVCAR-3 Ovarian Cancer Model—Forty-two nude mice were implanted subcutaneously with OVCAR-3 ovarian carcinoma, the hydrochloride salt of MP470 (MP470.HCl) was formulated in 100% corn oil and delivered orally. MP470.HCl, cisplatin, and irinotecan were administered to animals alone or in combination. When administered alone, MP470.HCl was given qd at 100 or 200 mg/kg, irinotecan was given q3d at 20 mg/kg, and cisplatin was given q7d at 5 mg/kg. In combination studies, 100 mg/kg MP470.HCl was given qd and combined with 20 mg/kg irinotecan given q3d or 5 mg/kg cisplatin given q7d. One animal in the 200 mg/kg MP470.HCl group died on Day 1, while five animals in the MP470.HCl/cisplatin combination group died (one on Day 5, Day 6, Day 7, Day, 20, and Day 27). Treatment with each individual agent (200 mg/kg MP470.HCl, 46.2 mm3/d; 20 mg/kg irinotecan, 38.53 mm3/d; 5 mg/kg cisplatin, 33.8 mm3/d) reduced the tumor growth rate below that of vehicle-treated mice (78.04 mm3/d). […] In contrast, when MP470.HCl and cisplatin were used in combination, the tumor growth rate was reduced to 10.22 mm3/d. However, the 100 mg/kg dose of MP470.HCl in combination with cisplatin caused enhanced toxicity and most animals in this group died during the 21-day treatment period. The enhanced toxicity was related to the level of the dose used, so a subsequent study was conducted using half the dose, 50 mg/kg/day as described below.

DMS-153 SCLC cells = test: Sensitization of SCLC cells to etoposide; format: cell-based; conditions: Homo sapiens; DMS-153, single agent
Procedure: (§1) Therefore, to determine if MP470 would increase sensitivity to etoposide treatment, SCLC cells were treated with the agents individually and in combination. […] Two sub-IC50 doses of MP470.HCl were tested in combination with etoposide to evaluate possible synergism and a resulting lower IC50 value for etoposide in each of the cell lines.

DMS-114 SCLC cells = test: Sensitization of SCLC cells to etoposide; format: cell-based; conditions: Homo sapiens; DMS-114, single agent
Procedure: as §1

S=C(NCc1ccc2c(c1)OCO2)N1CCN(c2ncnc3c2oc2ccccc23)CC1 [MP470, 4-[1]benzofuro[3,2-d]pyrimidin-4-yl-N-(1,3-benzodioxol-5-ylmethyl)piperazine-1-carbothioamide]
mortality at the low dose [1]: the third rat died after dosing | Increase in cell death over either agent alone ([2]; MP470 1 μM combined with 800c Gy ionizing radiation): more than two-fold | Cell death (MTS assay) ([2]; MP470 at 1 μM alone): will induce cell death

Cl.S=C(NCc1ccc2c(c1)OCO2)N1CCN(c2ncnc3c2oc2ccccc23)CC1 [MP470.HCl, 4-[1]benzofuro[3,2-d]pyrimidin-4-yl-N-(1,3-benzodioxol-5-ylmethyl)piperazine-1-carbothioamide hydrochloride]
Rad51 expression [3]: did not alter the expression of Rad51 | half-life (in vivo; both sexes, rats, daily oral dosing 28 days, read-out: half-lives): 2 to 8 h | severely toxic dose (in vivo; female): > 600 mg/m2/d | severely toxic dose (STD) (in vivo; female): higher than 100 mg/kg/d | severely toxic dose (in vivo; male): > 1200 mg/m2/d | severely toxic dose (STD) (in vivo; male): > 200 mg/kg/day | cardiotoxicity (histopathology) (in vivo): no evidence of cardiotoxicity in either sex | animals that died ([4]; 200 mg/kg MP470.HCl group, Day 1): One | tumor growth rate ([4]; 200 mg/kg qd oral in corn oil (vehicle 78.04)): 46.2 mm3/d | Outcome: tumor growth ([4]; OVCAR-3, PO 100 or 200 mg/kg, qd × 28, corn oil, hydrochloride): Dose dependency | pIC50 (DMS-153 SCLC cells): 5.29 | pIC50 (DMS-114 SCLC cells): 6.01

— patent US8445502B2, “Pharmaceutical formulations comprising salts of a protein kinase inhibitor and methods of using same” (Astex Pharmaceuticals, Inc., priority 2007, dated 2013)
